# Measurements: ChEMBL document CHEMBL5678818, “Discovery of potent SOS1 inhibitors that block RAS activation via disruption of the RAS-SOS1 interaction” (Proc Natl Acad Sci U S A, 2019)
# The source made the active and inactive calls. No cut-off for these calls is given here.
# Key:
# [1] = tested on: Receptor-type tyrosine-protein kinase FLT3 (Homo sapiens), P36888 [D835V]; test: Inhibition of FLT3 D835V mutant (unknown origin) assessed as residual activity at 1000 nM by KINOMEscan analysis relative to control
# [2] = organism: Homo sapiens; test: Inhibition of N-terminal His10-tagged recombinant human KRAS G12C/C118S mutant (1 to 169 residues) expressed in Escherichia coli/Series S C1 sensor chip-immobilized biotinylated N-terminal His10-tagged wild-type recombinant human SOS1 catalytic domain (564 to 1049 residues) expressed in Escherichia coli protein-protein interaction at 10 uM measured for 360 secs by SPR analysis; settings: time 360.0 sec
# [3] = tested on: Tyrosine-protein kinase ABL1 (Homo sapiens), P00519 [F317I]; test: Inhibition of nonphosphorylated ABL1 F317I mutant (unknown origin) assessed as residual activity at 100 nM by KINOMEscan analysis relative to control
# [4] = target: RAC-beta serine/threonine-protein kinase (Homo sapiens) (UniProt P31751); test: Inhibition of AKT2 (unknown origin) assessed as residual activity at 100 nM by KINOMEscan analysis relative to control
# [5] = target: T1, Serine/threonine-protein kinase haspin (Homo sapiens) (UniProt Q8TF76); test: Inhibition of HASPIN (unknown origin) assessed as residual activity at 100 nM by KINOMEscan analysis relative to control
# T1 sequence (whole entry): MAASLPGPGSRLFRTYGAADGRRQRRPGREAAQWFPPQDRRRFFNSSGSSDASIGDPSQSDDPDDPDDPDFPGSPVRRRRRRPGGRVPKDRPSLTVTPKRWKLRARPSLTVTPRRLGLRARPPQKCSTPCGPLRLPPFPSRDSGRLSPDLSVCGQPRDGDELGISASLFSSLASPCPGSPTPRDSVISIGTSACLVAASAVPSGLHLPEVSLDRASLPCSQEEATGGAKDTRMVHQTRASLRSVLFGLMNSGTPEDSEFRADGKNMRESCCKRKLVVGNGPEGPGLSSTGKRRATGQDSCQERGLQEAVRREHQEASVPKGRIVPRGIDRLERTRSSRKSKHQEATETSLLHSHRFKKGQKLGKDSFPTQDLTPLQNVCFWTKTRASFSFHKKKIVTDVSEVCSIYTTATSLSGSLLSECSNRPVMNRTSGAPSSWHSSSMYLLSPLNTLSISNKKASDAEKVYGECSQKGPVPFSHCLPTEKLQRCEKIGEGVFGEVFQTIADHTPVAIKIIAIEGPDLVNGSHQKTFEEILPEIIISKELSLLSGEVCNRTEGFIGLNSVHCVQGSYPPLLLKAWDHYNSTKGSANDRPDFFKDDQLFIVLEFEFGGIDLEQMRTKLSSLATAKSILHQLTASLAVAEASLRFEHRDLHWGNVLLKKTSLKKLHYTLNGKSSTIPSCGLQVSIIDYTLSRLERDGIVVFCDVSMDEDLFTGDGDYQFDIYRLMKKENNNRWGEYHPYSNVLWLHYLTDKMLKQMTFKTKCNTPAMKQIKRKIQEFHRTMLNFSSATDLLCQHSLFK
# [6] = target: Mast/stem cell growth factor receptor Kit (Homo sapiens) (UniProt P10721); test: Inhibition of autoinhibited KIT (unknown origin) assessed as residual activity at 100 nM by KINOMEscan analysis relative to control
# [7] = target: Serine/threonine-protein kinase 10 (Homo sapiens) (UniProt O94804); test: Inhibition of LOK (unknown origin) assessed as residual activity at 100 nM by KINOMEscan analysis relative to control
# [8] = target: T2, Protein kinase C epsilon type (Homo sapiens) (UniProt Q02156); test: Inhibition of PRKCE (unknown origin) assessed as residual activity at 100 nM by KINOMEscan analysis relative to control
# T2 sequence (whole entry): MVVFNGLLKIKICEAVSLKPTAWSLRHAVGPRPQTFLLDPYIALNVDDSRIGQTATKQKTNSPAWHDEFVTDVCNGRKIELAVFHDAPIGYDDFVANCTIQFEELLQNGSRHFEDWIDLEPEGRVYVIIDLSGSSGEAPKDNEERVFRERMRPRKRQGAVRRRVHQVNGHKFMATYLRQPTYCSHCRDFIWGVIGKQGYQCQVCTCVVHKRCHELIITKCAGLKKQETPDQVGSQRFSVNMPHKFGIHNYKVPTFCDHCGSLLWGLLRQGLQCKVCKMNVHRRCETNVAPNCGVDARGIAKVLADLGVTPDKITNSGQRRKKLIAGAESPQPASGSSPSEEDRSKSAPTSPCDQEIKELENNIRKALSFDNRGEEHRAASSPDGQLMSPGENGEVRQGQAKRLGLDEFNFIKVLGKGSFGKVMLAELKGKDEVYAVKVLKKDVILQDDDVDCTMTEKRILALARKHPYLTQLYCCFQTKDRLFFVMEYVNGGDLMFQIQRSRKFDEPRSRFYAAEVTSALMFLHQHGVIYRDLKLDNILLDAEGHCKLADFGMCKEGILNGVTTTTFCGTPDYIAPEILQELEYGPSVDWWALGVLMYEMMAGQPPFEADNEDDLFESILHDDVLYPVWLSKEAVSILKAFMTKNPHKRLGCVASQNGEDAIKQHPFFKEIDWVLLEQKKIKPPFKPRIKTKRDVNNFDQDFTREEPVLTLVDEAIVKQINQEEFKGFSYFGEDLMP
# Tyrosine-protein kinase ABL1 (Homo sapiens), P00519 [F317I], sequence (P00519 whole entry F317I): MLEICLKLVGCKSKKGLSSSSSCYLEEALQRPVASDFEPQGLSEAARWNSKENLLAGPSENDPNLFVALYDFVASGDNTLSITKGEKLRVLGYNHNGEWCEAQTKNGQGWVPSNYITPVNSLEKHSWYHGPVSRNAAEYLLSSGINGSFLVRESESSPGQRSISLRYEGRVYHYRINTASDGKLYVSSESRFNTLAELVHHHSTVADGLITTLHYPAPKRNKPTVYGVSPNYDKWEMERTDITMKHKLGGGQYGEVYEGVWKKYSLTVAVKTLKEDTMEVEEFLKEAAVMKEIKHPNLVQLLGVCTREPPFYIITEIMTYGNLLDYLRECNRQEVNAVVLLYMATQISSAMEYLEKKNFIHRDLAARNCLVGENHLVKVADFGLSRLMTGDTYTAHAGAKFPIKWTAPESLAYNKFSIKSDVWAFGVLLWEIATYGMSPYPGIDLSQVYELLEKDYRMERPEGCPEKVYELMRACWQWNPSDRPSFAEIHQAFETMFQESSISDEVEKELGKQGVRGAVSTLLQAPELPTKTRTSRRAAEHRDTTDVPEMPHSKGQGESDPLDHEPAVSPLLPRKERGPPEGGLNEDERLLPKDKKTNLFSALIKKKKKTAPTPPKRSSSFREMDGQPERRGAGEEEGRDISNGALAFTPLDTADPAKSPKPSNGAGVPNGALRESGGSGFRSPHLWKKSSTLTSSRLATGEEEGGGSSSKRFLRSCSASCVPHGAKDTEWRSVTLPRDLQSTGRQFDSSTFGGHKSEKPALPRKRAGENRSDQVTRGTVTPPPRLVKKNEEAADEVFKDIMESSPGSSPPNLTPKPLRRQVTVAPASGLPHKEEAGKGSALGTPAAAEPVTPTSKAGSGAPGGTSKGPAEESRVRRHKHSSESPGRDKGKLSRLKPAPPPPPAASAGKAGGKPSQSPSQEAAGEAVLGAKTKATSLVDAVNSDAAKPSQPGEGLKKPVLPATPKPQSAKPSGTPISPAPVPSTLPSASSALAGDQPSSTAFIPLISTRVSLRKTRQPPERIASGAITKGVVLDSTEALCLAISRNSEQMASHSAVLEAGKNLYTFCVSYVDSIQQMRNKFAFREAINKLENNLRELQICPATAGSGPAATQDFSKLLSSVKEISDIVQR
# Mast/stem cell growth factor receptor Kit (Homo sapiens), sequence (P10721 whole entry): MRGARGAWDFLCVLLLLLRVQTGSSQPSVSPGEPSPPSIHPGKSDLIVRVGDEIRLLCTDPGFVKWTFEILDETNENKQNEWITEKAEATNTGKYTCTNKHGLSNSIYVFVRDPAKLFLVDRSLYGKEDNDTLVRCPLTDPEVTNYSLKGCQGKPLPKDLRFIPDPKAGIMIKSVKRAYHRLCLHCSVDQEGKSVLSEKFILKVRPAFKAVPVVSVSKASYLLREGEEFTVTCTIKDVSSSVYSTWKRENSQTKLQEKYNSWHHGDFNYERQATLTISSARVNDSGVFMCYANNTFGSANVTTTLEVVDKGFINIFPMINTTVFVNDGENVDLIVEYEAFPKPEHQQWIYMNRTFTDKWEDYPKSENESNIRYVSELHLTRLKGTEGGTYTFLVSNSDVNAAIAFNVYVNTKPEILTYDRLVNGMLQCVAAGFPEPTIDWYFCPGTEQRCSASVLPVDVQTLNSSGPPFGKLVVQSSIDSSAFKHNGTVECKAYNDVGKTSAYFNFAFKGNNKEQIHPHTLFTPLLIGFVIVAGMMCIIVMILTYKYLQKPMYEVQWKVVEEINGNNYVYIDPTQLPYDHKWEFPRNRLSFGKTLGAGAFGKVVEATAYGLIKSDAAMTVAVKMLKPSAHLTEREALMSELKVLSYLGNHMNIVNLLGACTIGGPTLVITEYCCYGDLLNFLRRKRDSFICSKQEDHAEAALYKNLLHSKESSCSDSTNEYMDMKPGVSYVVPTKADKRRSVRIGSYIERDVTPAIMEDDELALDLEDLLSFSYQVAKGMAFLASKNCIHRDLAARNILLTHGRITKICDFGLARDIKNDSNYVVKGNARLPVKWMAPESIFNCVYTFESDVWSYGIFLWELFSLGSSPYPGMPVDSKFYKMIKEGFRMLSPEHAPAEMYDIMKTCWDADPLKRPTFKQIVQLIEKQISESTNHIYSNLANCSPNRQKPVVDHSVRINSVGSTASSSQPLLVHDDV
# Serine/threonine-protein kinase 10 (Homo sapiens), sequence (O94804 whole entry, looked up): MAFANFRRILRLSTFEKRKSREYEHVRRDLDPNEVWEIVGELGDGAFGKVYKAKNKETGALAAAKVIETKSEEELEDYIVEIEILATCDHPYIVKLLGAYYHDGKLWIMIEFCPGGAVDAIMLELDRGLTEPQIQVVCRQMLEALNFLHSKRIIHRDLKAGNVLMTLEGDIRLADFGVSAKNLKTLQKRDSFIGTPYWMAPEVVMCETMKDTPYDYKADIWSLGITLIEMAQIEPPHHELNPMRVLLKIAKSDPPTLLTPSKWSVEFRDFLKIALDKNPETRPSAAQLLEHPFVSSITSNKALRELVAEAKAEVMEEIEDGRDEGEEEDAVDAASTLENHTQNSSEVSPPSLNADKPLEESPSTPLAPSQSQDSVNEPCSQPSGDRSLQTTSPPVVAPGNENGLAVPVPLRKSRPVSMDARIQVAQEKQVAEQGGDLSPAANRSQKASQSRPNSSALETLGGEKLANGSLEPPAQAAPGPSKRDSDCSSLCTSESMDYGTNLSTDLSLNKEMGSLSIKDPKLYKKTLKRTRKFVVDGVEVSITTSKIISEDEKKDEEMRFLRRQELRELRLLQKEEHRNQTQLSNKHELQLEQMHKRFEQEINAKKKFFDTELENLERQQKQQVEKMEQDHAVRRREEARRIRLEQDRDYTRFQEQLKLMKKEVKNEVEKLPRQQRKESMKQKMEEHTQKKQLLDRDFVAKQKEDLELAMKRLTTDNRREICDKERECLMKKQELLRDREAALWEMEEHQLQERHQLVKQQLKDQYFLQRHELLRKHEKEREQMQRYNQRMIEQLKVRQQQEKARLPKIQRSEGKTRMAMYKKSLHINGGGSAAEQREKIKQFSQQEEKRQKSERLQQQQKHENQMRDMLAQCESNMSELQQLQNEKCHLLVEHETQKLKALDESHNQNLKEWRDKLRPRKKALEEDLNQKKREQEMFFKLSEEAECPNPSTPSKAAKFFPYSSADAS
# RAC-beta serine/threonine-protein kinase (Homo sapiens), sequence (P31751 whole entry): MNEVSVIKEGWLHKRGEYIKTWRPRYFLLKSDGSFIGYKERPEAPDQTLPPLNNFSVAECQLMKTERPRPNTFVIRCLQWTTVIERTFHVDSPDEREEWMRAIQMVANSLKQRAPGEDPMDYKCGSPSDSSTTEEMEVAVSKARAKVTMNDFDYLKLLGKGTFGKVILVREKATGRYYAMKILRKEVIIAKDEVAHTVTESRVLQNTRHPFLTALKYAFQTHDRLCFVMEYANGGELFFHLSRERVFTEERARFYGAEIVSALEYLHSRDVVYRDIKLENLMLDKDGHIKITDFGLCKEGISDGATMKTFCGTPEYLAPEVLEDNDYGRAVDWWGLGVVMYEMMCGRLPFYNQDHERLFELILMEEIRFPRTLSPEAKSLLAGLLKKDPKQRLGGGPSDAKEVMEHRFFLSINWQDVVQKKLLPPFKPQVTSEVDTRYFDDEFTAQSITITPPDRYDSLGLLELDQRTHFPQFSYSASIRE
SMILES,Activity [1] [%],Activity [2],Activity [3] [%],Activity [4] [%],Activity [5] [%],Activity [6] [%],Activity [7] [%],Activity [8] [%]
COc1cc2nc(C)nc(N[C@H](C)c3cccc(-c4cn[nH]c4)c3)c2cc1OC,100,,,,,,,
COc1cc2ncnc(N[C@H](C)c3cccc4ccccc34)c2cc1OC,,Active,85,88,95,91,98,96
